Results reported in article PMC7558026, “Exploring and applying the substrate promiscuity of a C-glycosyltransferase in the chemo-enzymatic synthesis of bioactive C-glycosides” (Nature Communications, 2020).
Values joined by “and” are separate entries in the source; they are usually repeats but may differ in a detail not shown here. Equal entries are not always repeated.

T1: SGLT2 (Homo sapiens, UniProt P31639)
T1 construct: Human full-length SGLT2 cDNA (NM_003041.3) was synthesized; expressed in transfected cells; host or cells: HEK293, retroviral transduction with pMSCVpuro-SGLT2, puromycin selected
T1 sequence (P31639 1-672): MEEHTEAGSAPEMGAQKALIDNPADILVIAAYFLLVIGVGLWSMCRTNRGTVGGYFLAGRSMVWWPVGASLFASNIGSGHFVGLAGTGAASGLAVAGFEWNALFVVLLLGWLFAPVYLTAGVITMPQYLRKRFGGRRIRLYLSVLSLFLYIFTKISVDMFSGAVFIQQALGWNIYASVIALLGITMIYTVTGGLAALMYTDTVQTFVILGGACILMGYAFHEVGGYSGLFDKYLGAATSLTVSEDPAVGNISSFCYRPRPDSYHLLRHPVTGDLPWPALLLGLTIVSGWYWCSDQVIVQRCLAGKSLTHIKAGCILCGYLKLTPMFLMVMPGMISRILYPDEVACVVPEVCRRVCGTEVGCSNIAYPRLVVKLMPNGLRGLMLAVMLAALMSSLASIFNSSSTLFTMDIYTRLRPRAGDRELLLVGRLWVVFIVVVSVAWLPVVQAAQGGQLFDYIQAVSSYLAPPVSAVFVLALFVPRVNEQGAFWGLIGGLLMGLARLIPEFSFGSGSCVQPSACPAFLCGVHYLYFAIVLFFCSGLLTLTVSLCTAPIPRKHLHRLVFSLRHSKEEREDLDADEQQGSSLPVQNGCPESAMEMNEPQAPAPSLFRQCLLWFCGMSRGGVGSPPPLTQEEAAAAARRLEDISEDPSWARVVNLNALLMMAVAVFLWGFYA

B1: AbCGT (Aloe vera) (protein)
chain: MSNSGRPHVALLPSAGMGHLTPFCRLAALLSSRGGGDLDVSFITAEPTVSLKEYLQIRDLLSSFPSIKSHRFKVPELSPSQFPSSPDPFFQQWESIRRCAHLLPPLLASATALIIDTASASAVLPVAKQLNIPAYILFTSSASMLSLVAHFPSHVISSTSPSAPLMSNILIPGLKHPVPAAWVPPPLHVPGHIFSTLTVDNGRCLPEADGVIINTFDALEPEVLAALNGGRVAHGLPRVFAVGPLVAPPPPQQMEETGGGDYPIAWLDRQRDKSVVYVSFGSRTAMSPEQIRELAAGLERSGCSFLWVIKTKKVDRDEEETDLGALLGEGYVERVKGRGLVVNGWVEQEEILRHRAVGGFVSHCGWNSVTEAAVAGVRVLCWPRMGDQRLNAEVVRRSGVGVWMEEWSWEAEGGVVGGEEIGRRVKEMMEDEGLRDSAERVAEEARVALGVGGTSSKEMEEFISRIMMGS

Columns and labels:
AbCGT = AbCGT (Aloe vera, UniProt A0A7G9P699); experiment: Glycosyltransferase activity assay, purified AbCGT (wild type) with aglycon acceptors and UDP-Glc; assay type: biochemical, Aloe barbadensis; conditions: fig. 2b, purified AbCGT, redesigned substrates; Reaction-1 to -3
in vitro = conditions: human
SGLT2 = target: T1, SGLT2; experiment: 1-NBDG uptake in HEK293 cells stably expressing SGLT2; assay type: cell-based; conditions: HEK293, compound at 10 μM; triplicate; read-out: SGLT2 inhibitory rates
[1] = tested on: Influenza A/WSN/33 (H1N1); experiment: microbe, parasite or virus in culture; assay type: cell-based; conditions: — = no inhibition activity
E. coli-AbCGT = experiment: Glycosylation by whole-cell biocatalyst E. coli-AbCGT; assay type: cell-based; conditions: fig. 2c, 30 °C, M9 medium, 12 h, 0.25 mM acceptor; Reaction-1 to -3
Experimental: The induced cells of E. coli-AbCGT were harvested by centrifugation at 3000 × g for 5 min at 4 °C and washed with ddH2O. Pellets were resuspended by M9 minimal medium containing 2% glucose to appropriate cell density (OD600 = 3.0). Prepared whole-cell biocatalyst of E. coli-AbCGT (500 μL) was then added to 2-mL tubes containing various acceptors at a concentration of 0.25 mM. The mixture was incubated at 30 °C for 12 h with shaking (200 rpm). The reactions were analyzed using GT activity assays as described above. For quantification, three parallel assays were routinely carried out.

[2] = substrate: O=C1C[C@@](O)(c2ccc(O)cc2)Oc2cc(O)cc(O)c21; experiment: Kinetic parameters of AbCGT (wild type); assay type: biochemical, Aloe barbadensis; conditions: other: acceptor varied, UDP-Glc as donor, pH 7.4, 30 °C
Experimental: (§1) The reactions terminated by the addition of 200 μL of ice-cold methanol. Subsequently, samples were centrifuged at 15,000 × g for 30 min to collect the supernatant, and aliquots were analyzed by HPLC as described above. All experiments were performed in triplicate. The value of Km was calculated with the method of Lineweaver–Burk plot.

[3] = substrate: CC(=O)c1c(O)cc(O)cc1O; experiment: Kinetic parameters of AbCGT (wild type); assay type: biochemical, Aloe barbadensis; conditions: other: acceptor varied, UDP-Glc as donor, pH 7.4, 30 °C
Experimental: as §1

[4] = substrate: O=C(CCc1ccc(O)cc1)c1c(O)cc(O)cc1O; experiment: Kinetic parameters of AbCGT (wild type); assay type: biochemical, Aloe barbadensis; conditions: other: acceptor varied, UDP-Glc as donor, pH 7.4, 30 °C
Experimental: as §1

Molecule	conversion rates, Purified Enzyme (AbCGT) [%]	CC50 (in vitro) [µM]	inhibition at 10 µM (SGLT2) [%]	inhibition at 20 µM ([1]; final concentration 20 μM, read-out: Inhibitory Rates, anti-influenza A virus activity) [%]	IC50 ([1]; read-out: IC50, anti-influenza A virus activity) [µM]	conversion rates, Whole cells (E. coli-AbCGT)	Km [2] [µM]	Km [3] [µM]	kcat [3] [s⁻¹]	Km [4] [µM]	kcat [4] [s⁻¹]
Oc1cc(O)c(Cc2ccc3nccnc3c2)c(O)c1 [Compound 44]	100	> 200	0.2	< 0	> 20	7.1% and 12.8% and 10.1%	–	–	–	–	–
B1	–	–	–	–	–	–	414.5 ± 23.7	176.2 ± 11.7	2.4 ± 0.152	146.0 ± 10.2	2 ± 0.138
